Measurements reported in the METLIN SMRT retention time set (Domingo-Almenara et al. 2019).

experiment: gradient 5% acetonitrile 3 min, to 50% in 2 min, to 85% in 15 min, held 3 min, 100 µL/min; conditions: column: Zorbax Extend-C18 2.1 x 50 mm; eluents: water / acetonitrile, 0.1% formic acid
Summary of the method: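 Pure standards were analyzed in mixtures of ~100 molecules using HPLC coupled to a quadrupole time-of-flight mass spectrometer, in both positive and negative ionization mode. Separation used a Zorbax Extend-C18 column (2.1 × 50 mm, 1.8 μm) at 100 μL/min, with water and acetonitrile each containing 0.1% formic acid. Dead and dwell volumes were 40 μL and 900 μL, and data were collected over 3 months. Retention time was read from computationally picked adduct peaks, each inspected manually.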

Compared with `CCC(C)(C)NC(=O)C1CCCN1S(=O)(=O)c1cc2c(cc1C)NC(=O)CO2` (stereo not drawn), `Cc1ccc(NC(=O)C2CCCN2S(=O)(=O)c2ccc3c(c2)CCCC(=O)N3)cc1C` (stereo not drawn) is higher in RP-LC retention time: 745 s for the first, 818 s for the second.

First: COc1ccc(S(=O)(=O)NC2CCc3nnc(C)n3CC2)cc1Cl (stereo not drawn)
Second: C=CCNC(=O)C1CCCN(S(=O)(=O)c2cc(OC)ccc2OC)C1 (stereo not drawn)
The RP-LC retention time of the first is lower: 641 s for the first, 723 s for the second.

First: O=C(Cn1c2ccccc2c2ncn(Cc3nc(C4CC4)no3)c(=O)c21)NCCC1=CCCCC1
Second: O=C(Cn1c(=O)c2cccn2c2ccccc21)NCCCN1CCCCC1
The RP-LC retention time of the first is higher: 940 s for the first, 595 s for the second.

Going from `O=S(=O)(c1cccn2c(SCc3ccccc3)nnc12)N1CCCC1` to `O=c1n(Cc2cccc(F)c2)nc2c(S(=O)(=O)N3CCN(c4ccc(F)cc4)CC3)cccn12`, the RP-LC retention time rises from 808 s to 967 s.

First: COC[C@@H]1CN(Cc2ccc(Cl)c(F)c2)C[C@H]1c1nc(C)no1
Second: COc1cccc(-c2noc(C3CCCN3C(=O)Nc3ccc(C)cc3)n2)c1 (stereo not drawn)
The RP-LC retention time of the first is lower: 645 s for the first, 983 s for the second.

Compared with `Cc1ccc(F)cc1NC(=O)CSc1ccc(N2CCCC(C(=O)NC3CC3)C2)nn1` (stereo not drawn), `Cc1ccc(C)c(NC(=O)N2CCCC(C)(C(=O)NCc3ccc(F)cc3)C2)c1` (stereo not drawn) is higher in RP-LC retention time: 664 s for the first, 963 s for the second.

Compared with `COc1ccc2c(=O)c(C(=O)c3ccncc3)cn(CC(=O)NC3CCCCC3)c2c1`, `O=C(NC1CCCCC1)c1nc(-c2cn(-c3ccc(F)cc3)nn2)no1` is higher in RP-LC retention time: 655 s for the first, 938 s for the second.

First: Cc1ccc(Nc2nc(C)cc(N3CCN(S(=O)(=O)c4c(C)cc(C)cc4C)CC3)n2)cc1
Second: Cc1ccc(-n2nc(N3CCN(C(=O)Nc4ccc(Cl)cc4)CC3)ccc2=O)cc1
The RP-LC retention time of the first is higher: 917 s for the first, 894 s for the second.

Compared with `O=C(Nc1ccccc1Cl)C(=O)c1c[nH]c2ccccc12`, `COc1ccc2[nH]cc(CCNC(=O)c3sc4ncccc4c3-n3cccc3)c2c1` is lower in RP-LC retention time: 1130 s for the first, 932 s for the second.

Going from `CNC(=O)c1noc([C@@H]2CC(F)(F)CN2Cc2ccco2)n1` to `Cc1cc(C(=O)NCc2ccco2)c2c(=O)n(C)c(=O)n(C)c2n1`, the RP-LC retention time falls from 732 s to 663 s.

First: CCc1ccc(-c2noc(CSc3nc4cc5c(cc4c(=O)n3CC3CCCO3)OCO5)n2)cc1 (stereo not drawn)
Second: Cc1ccc(-c2nc(-c3ccc4c(c3)nc(C)c(=O)n4C)no2)cc1F
The RP-LC retention time of the first is higher: 1280 s for the first, 1150 s for the second.

Going from `O=C(Nc1cccc(Oc2ccccn2)c1)c1c2c(nn1C1CCS(=O)(=O)C1)CCC2` (stereo not drawn) to `O=C(Nc1ccc2c(c1)CCC2)c1ccnc(N2CCNC(c3ccccc3)C2)c1` (stereo not drawn), the RP-LC retention time falls from 807 s to 742 s.

First: CCOc1cncc(C(=O)N2CCCCC2C)c1 (stereo not drawn)
Second: CCOC(=O)CNC(=O)N1CCCCCC1c1cccc(C)c1 (stereo not drawn)
The RP-LC retention time of the first is lower: 725 s for the first, 931 s for the second.

Going from `CCCNC(=O)CCc1nc2ccccc2n(CC(=O)Nc2ccc(OC)cc2)c1=O` to `COC(=O)c1ccc(NC(=O)N2CCN(c3nc4ccccc4nc3C(F)(F)F)CC2)cc1`, the RP-LC retention time rises from 746 s to 1080 s.

Compared with `COc1cc(NC(=O)N2CCN(c3cc(-c4cccc(OC)c4)ncn3)CC2)cc(OC)c1`, `COc1cc(NC(=O)Nc2nccn(-c3ccc(C)c(Cl)c3)c2=O)cc(OC)c1` is higher in RP-LC retention time: 620 s for the first, 1060 s for the second.

Compared with `O=C(Nc1ccc(N2CCN(C3CCCC3)C2=O)nc1)c1cccc(F)c1`, `COc1ccc(OC)c(NC(=O)N2CCC(N3CCN(Cc4ccccc4)C3=O)CC2)c1` is lower in RP-LC retention time: 876 s for the first, 828 s for the second.

First: CC(C)n1nc(CNC(=O)c2ccc(Br)o2)c2ccccc21
Second: COCc1cc(=O)n(CC(=O)NCc2ccc(F)cc2)c(N)n1
The RP-LC retention time of the first is higher: 926 s for the first, 583 s for the second.

Going from `Clc1ccc2nc(-c3ccc(N4CCOCC4)cc3)c(Nc3ccc4c(c3)OCCO4)n2c1` to `COc1ccc(C2(CNS(=O)(=O)c3ccc4c(c3)OCCO4)CCOCC2)cc1`, the RP-LC retention time rises from 694 s to 785 s.

First: Cc1ccc(C)c(NC(=O)Cn2ccc3ccc(-c4nnc(C)o4)cc32)c1
Second: CCc1nnc(-c2ccc3ccn(CC(=O)Nc4cc(C)ccc4OC)c3c2)o1
The RP-LC retention time of the first is higher: 1150 s for the first, 932 s for the second.

Compared with `Nc1cc(C2CCN(S(=O)(=O)c3cccc4cccnc34)CC2)no1`, `CCc1nc(-c2csc(S(=O)(=O)N3CCC(C(=O)NCc4ccccn4)CC3)c2)no1` is lower in RP-LC retention time: 702 s for the first, 654 s for the second.

Going from `COCCN1C(=O)c2cccn2CC1CNC(=O)c1ccnn1C` (stereo not drawn) to `CC1CCCCN1CCCN1C(=O)c2ccccc2C1C(=O)NC1CCCCC1` (stereo not drawn), the RP-LC retention time rises from 626 s to 642 s.

Going from `CCCS(=O)(=O)NCc1ccc2c(c1)CCN2C(=O)c1cccc(C)c1` to `Cc1ccc(NS(=O)(=O)c2cn(CC(C)C)c3ncccc23)c(F)c1`, the RP-LC retention time rises from 899 s to 986 s.

First: O=S(=O)(c1cccc(Cl)c1)N1CCc2nc(-c3ccc(F)cc3)ncc2C1
Second: COc1ccc(-c2cc(C(=O)N3CCN(S(=O)(=O)c4ccc(OC)c(OC)c4)CC3)[nH]n2)cc1
The RP-LC retention time of the first is higher: 1180 s for the first, 795 s for the second.

Compared with `CC(=O)N1CCC(c2noc(-c3ccccn3)n2)C1` (stereo not drawn), `Cc1ncoc1C(=O)N1CC(Oc2ccc(-c3nc(-c4ccccc4)no3)cc2)C1` is higher in RP-LC retention time: 596 s for the first, 1040 s for the second.

Going from `COc1ccc(-c2nc3ccc(C4=NNC(=O)CC4C)cc3[nH]2)cc1` (stereo not drawn) to `COC(=O)c1ccccc1Nc1c(-c2ccc(C)cc2)nc2cnccn12`, the RP-LC retention time rises from 654 s to 875 s.

Going from `O=C(NC1CCCC1)N1CCC2(CC1)N(c1ccccc1)C(=O)CS2=O` (stereo not drawn) to `CCS(=O)(=O)N1CC(=O)N(c2cc(Cl)ccc2C)C(C)(C(=O)NC2CCCCC2)C1` (stereo not drawn), the RP-LC retention time rises from 648 s to 955 s.

Going from `O=C(NCCc1csc(-c2ccc(F)cc2)n1)Nc1ccccc1C(F)(F)F` to `O=C(c1ccc([N+](=O)[O-])o1)N1CCN(Cc2csc(-c3ccccc3)n2)CC1`, the RP-LC retention time falls from 948 s to 601 s.

Going from `Cc1[nH]c(C(=O)N2CCCC(C(=O)N3CCN(c4ccccc4)CC3)C2)c(C)c1C(=O)OC(C)C` (stereo not drawn) to `CCC(=O)N1CCc2sc(C(=O)N3CCN(c4ccc(Cl)cc4)CC3)cc2C1`, the RP-LC retention time rises from 892 s to 899 s.

Compared with `O=[N+]([O-])c1cccnc1Oc1cc(Cl)c(Cl)cc1Cl`, `CCN(CC)C(=O)Cn1nc2cc(C)nc(-c3cccc(Cl)c3)n2c1=O` is lower in RP-LC retention time: 1220 s for the first, 790 s for the second.

Compared with `Cc1nc2ncnn2c(C)c1CCC(=O)N1CCC(Cc2ccccc2)CC1`, `Cc1cc(Cl)ccc1NC(=O)C1CCCN(c2nnc(C)c3c(C)n(-c4ccccc4)nc23)C1` (stereo not drawn) is lower in RP-LC retention time: 815 s for the first, 803 s for the second.

First: CCOC(=O)c1c(C)oc2ncnc(NCCN3CCN(c4cccc(Cl)c4)CC3)c12
Second: COc1ccccc1N1CCN(c2ccnc(SCC(=O)Nc3ccccc3C)n2)CC1
The RP-LC retention time of the first is higher: 860 s for the first, 666 s for the second.

First: CCn1cc(CN2CCC(C(=O)NCc3ccc(C)cc3)CC2)c2cc(OC)ccc21
Second: COc1ccc(-n2c(=O)n(C)c(=O)c3cc(C(=O)NCc4cccc(OC)c4)cnc32)cc1
The RP-LC retention time of the first is lower: 720 s for the first, 833 s for the second.

First: CCOc1ccc(-c2[nH]ncc2CN2CCC3(CC2)CC(C)(O)CCO3)cc1 (stereo not drawn)
Second: CCN1CCC2(CC1)CN(Cc1cccc(Cl)c1)Cc1ccccc1O2
The RP-LC retention time of the first is higher: 596 s for the first, 585 s for the second.

Going from `COc1ccc(-c2nnc(COc3ccc(NC(=O)c4cccnc4SC)cc3)o2)cc1` to `O=C(COc1ccc(F)cc1)Nc1cnc(-c2cccnc2)nc1`, the RP-LC retention time falls from 893 s to 707 s.

First: Cc1cc2[nH]c(C(=O)NC(C)c3cccnc3)c(CN3CCCCC3)c2s1 (stereo not drawn)
Second: CCS(=O)(=O)N1CCCc2cc(C(=O)N3CCCCCC3)ccc21
The RP-LC retention time of the first is lower: 587 s for the first, 824 s for the second.

First: O=C(c1ccsc1)N1CCCCC1c1nncn1-c1ccccc1 (stereo not drawn)
Second: O=C(N[C@H]1C[C@@H]2C[C@H]1N(C(=O)c1ccc3c(c1)OCO3)C2)c1ccccc1
The RP-LC retention time of the first is lower: 676 s for the first, 721 s for the second.

First: Cc1ccc(-c2cn3c(CC(=O)N4c5ccccc5CC4C)csc3n2)cc1C (stereo not drawn)
Second: Cc1[nH]c2ccc(-c3nnc(SCC(=O)NCc4nc5ccccc5[nH]4)o3)cc2c1C
The RP-LC retention time of the first is higher: 965 s for the first, 642 s for the second.

First: CCN(CC)CCNC(=O)Cc1noc2ccc(C)cc12
Second: Cc1ccc(C)c(CNC(=O)c2c(C)sc3ccn(C)c(=O)c23)c1
The RP-LC retention time of the first is lower: 604 s for the first, 848 s for the second.

First: Cc1ccc(C(=O)N2CCc3[nH]nc(C(=O)N(C)C)c3C2)cc1C
Second: CCOC(=O)c1cc(S(=O)(=O)N2CCCC2C(=O)Nc2ccc(C)c(C)c2)cn1C (stereo not drawn)
The RP-LC retention time of the first is lower: 657 s for the first, 1020 s for the second.

First: CC(C)n1cnnc1CC1CCN(C(=O)C2CCC2)CC1
Second: COc1ccc(NC(=O)C2CC(=O)N(c3ccc4c(c3)CCN4C(=O)C3CC3)C2)cc1F (stereo not drawn)
The RP-LC retention time of the first is lower: 611 s for the first, 770 s for the second.

First: COc1ccc(NC(=O)N2C[C@@H]3C[C@H](NS(C)(=O)=O)[C@H]2C3)c(C)c1
Second: CCn1c(=O)n(CC)c2cc(S(=O)(=O)c3ccccc3)c(NC(=O)C3CC3)cc21
The RP-LC retention time of the first is lower: 652 s for the first, 816 s for the second.

Compared with `CNC(=O)C(=O)Nc1ccc(N(C)C)cc1`, `CCCS(=O)(=O)c1nc2ccc(NS(=O)(=O)c3cc(C)cc(C)c3)cc2s1` is higher in RP-LC retention time: 486 s for the first, 998 s for the second.

Compared with `CCCOc1ccc(C2NC(=O)NC(C)=C2C(=O)OCC(F)(F)F)cc1OC` (stereo not drawn), `CCC(=O)Nc1nnc(SCc2nnc(-c3ccccc3)o2)s1` is lower in RP-LC retention time: 808 s for the first, 739 s for the second.

First: O=C1C(=C2C=C(c3ccccc3)OC3=C2CCCC3)C(=O)c2ccccc21
Second: CC(C)CCNc1ccc2nncn2n1
The RP-LC retention time of the first is higher: 1150 s for the first, 786 s for the second.
